Data on 20 compounds can be found in US12325697B2 (Nimbus Clio, Inc., priority 2021, dated 2025).

Broadly, the pEC50 is −log10 of the EC50, conventionally taken in molar units. Usually pIC50 stands for the negative decadic logarithm of the IC50, by convention in mol/L.

The test system of assay [1] is Jurkat (clone E6-1) cells, NFAT luciferase reporter. The assay can be described thus: Jurkat Reporter Assay (NFAT Luciferase). Format: cell-based. The note with it: Homo sapiens, anti-CD3 stimulation, 6 hr, read-out: Jurkat NFAT EC50. (In a reporter assay the amount or activity of a reporter protein is the signal.)
Assay [2] concerns the target Recombinant human Cbl-b (aa 36-427) (Homo sapiens (Human), UniProt Q13191). Description: Cbl-b Biochemical Assay (TR-FRET). The note with it: read-out: TR-FRET hCbl-b IC50. The procedure, abridged: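 IC50 from 4-parameter fit of % inhibition (DMSO max, reference-inhibitor min), duplicate ten-point series. Compound preincubated with 6 nM Cbl-b, then Src-Zap70 (1-2.5 nM)/0.5 mM ATP reaction 60 min RT; EDTA quench with labelled UBE2D2-Ub and streptavidin-terbium, 60 min, HTRF at 520 nm.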
(In TR-FRET formats the signal depends on donor and acceptor labels being close together.)

Assay [3] has as its system Phospho-Zap70 (Y-319) in Jurkat wild-type (clone E6-1) cells. Description: Jurkat pZAP70 HTRF Assay. Format: cell-based. The note with it: Homo sapiens, anti-CD3 5 μg/ml, 3 hr, read-out: ZAP70 Jurkat EC50.

pEC50, pIC50: −log10 of the molar value.

Chain of Recombinant human Cbl-b (aa 36-427) (Q13191 36-427): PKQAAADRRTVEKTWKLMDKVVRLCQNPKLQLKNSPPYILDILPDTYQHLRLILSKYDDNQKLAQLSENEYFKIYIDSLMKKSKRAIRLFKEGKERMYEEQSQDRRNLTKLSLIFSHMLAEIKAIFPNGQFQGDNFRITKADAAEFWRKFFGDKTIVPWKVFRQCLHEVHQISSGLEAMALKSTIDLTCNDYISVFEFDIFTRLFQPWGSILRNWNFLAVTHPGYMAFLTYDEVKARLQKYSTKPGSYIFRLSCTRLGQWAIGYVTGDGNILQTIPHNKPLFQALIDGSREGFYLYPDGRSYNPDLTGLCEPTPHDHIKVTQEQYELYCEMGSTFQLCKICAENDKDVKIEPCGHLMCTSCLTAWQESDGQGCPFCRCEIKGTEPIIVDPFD

Regarding `CCNc1cc(-c2ccc(C#N)cc2-c2nncn2C)cc(N2Cc3c(cc(NC)cc3C(F)(F)F)C2=O)n1` [AFA-2, 4-[2-(ethylamino)-6-[6-(methylamino)-1-oxo-4-(trifluoromethyl)-3H-isoindol-2-yl]pyridin-4-yl]-3-(4-methyl-1,2,4-triazol-3-yl)benzonitrile], the results for the pEC50 in assay [1] and in assay [3] were greater than 6.70 and 6.00 to 6.70, respectively. In addition, the negative logarithm of the IC50 (pIC50) in assay [2] is no less than 6.70.

For `CCNc1cc(-c2ccc(C#N)cc2-c2nncn2C)cc(N2Cc3c(cc(COCC(C)(C)O)cc3C(F)(F)F)C2=O)n1` [AFE-1, 4-[2-(ethylamino)-6-{6-[(2-hydroxy-2-methylpropoxy)methyl]-1-oxo-4-(trifluoromethyl)-3H-isoindol-2-yl}pyridin-4-yl]-3-(4-methyl-1,2,4-triazol-3-yl)benzonitrile], the pEC50 is greater than 6.70 in assay [1] and 6.00 to 6.70 in assay [3]. Also, the pIC50 in assay [2] is no less than 6.70.

Consider `CCNc1cc(-c2ccc(F)cc2-c2nncn2C)cc(N2Cc3c(cc(COCC4(O)CCC4)cc3C(F)(F)F)C2=O)n1` [AFF-2, 2-[6-(Ethylamino)-4-[4-fluoro-2-(4-methyl-1,2,4-triazol-3-yl)phenyl]pyridin-2-yl]-6-{1[(1-hydroxycyclobutyl)methoxy]methyl}-4-(trifluoromethyl)-3H-isoindol-1-one], for which the pEC50 in assay [1] and in assay [3] was greater than 6.70 each time. In assay [2], the pIC50 is no less than 6.70.

Consider `CCNc1cc(-c2ccc(F)cc2-c2nncn2C)cc(N2Cc3c(cc(COCC(C)(C)O)cc3C(F)(F)F)C2=O)n1` [AFG-1, 2-[6-(Ethylamino)-4-[4-fluoro-2-(4-methyl-1,2,4-triazol-3-yl)phenyl]pyridin-2-yl]-6-[(2-hydroxy-2-methylpropoxy)methyl]-4-(trifluoromethyl)-3H-isoindol-1-one], for which the pEC50 in assay [1] was greater than 6.70; in assay [3], 6.00 to 6.70. In addition, the pIC50 in assay [2] was no less than 6.70.

Take `Cn1cnnc1-c1cc(F)ccc1-c1cc(C2CC2)nc(N2Cc3ccc(CNCC4(O)CCC4)cc3C2=O)c1` [AFH-1, 2-{6-Cyclopropyl-4-[4-fluoro-2-(4-methyl-1,2,4-triazol-3-yl)phenyl]pyridin-2-yl}-6-({[(1-hydroxycyclobutyl)methyl]amino}methyl)-3H-isoindol-1-one]: the pEC50 in assay [1] and in assay [3] was greater than 6.70 throughout. The pIC50 in assay [2] was no less than 6.70.

`Cn1cnnc1-c1cnn(C)c1-c1cc(C2CC2)nc(N2Cc3ccc(CNCC4(O)CCC4)cc3C2=O)c1` [AFI-1, 2-{6-Cyclopropyl-4-[2-methyl-4-(4-methyl-1,2,4-triazol-3-yl)pyrazol-3-yl]pyridin-2-yl}-6-({[(1-hydroxycyclobutyl)methyl]amino}methyl)-3H-isoindol-1-one]: the pEC50 in assay [1] and in assay [3] was greater than 6.70 each time. In assay [2], the negative-log IC50 (pIC50) is no less than 6.70.

Turning to `Cn1cnnc1-c1cc(C#N)ccc1-c1cc(C2CC2)nc(N2Cc3ccc(CNCC4(O)CCC4)cc3C2=O)c1` [AFJ-1, 4-{2-Cyclopropyl-6-[6-({[(1-hydroxycyclobutyl)methyl]amino}methyl)-1-oxo-3H-isoindol-2-yl]pyridin-4-yl}-3-(4-methyl-1,2,4-triazol-3-yl)benzonitrile], the pEC50 in assay [1] and in assay [3] was greater than 6.70 each time. Further, the pIC50 in assay [2] was no less than 6.70.

In the case of `Cn1cnnc1-c1cc(F)ccc1-c1cc(C2CC2)nc(N2Cc3c(cc(CO)cc3C(F)(F)F)C2=O)c1` [AFK-1, 2-{6-Cyclopropyl-4-[4-fluoro-2-(4-methyl-1,2,4-triazol-3-yl)phenyl]pyridin-2-yl}-6-(hydroxymethyl)-4-(trifluoromethyl)-3H-isoindol-1-one], the pEC50 in assay [1] and in assay [3] was greater than 6.70 throughout. For the same compound, the pIC50 in assay [2] was no less than 6.70.

On to `Cn1cnnc1-c1cc(F)ccc1-c1cc(C2CC2)nc(N2Cc3c(cc(COCC4(O)CCC4)cc3C(F)(F)F)C2=O)c1` [AFL-2, 2-{6-Cyclopropyl-4-[4-fluoro-2-(4-methyl-1,2,4-triazol-3-yl)phenyl]pyridin-2-yl}-6-{[(1-hydroxycyclobutyl)methoxy]methyl}-4-(trifluoromethyl)-3H-isoindol-1-one], for which the pEC50 in assay [1] and in assay [3] was greater than 6.70 throughout. Further, in assay [2], the pIC50 is no less than 6.70.

Turning to `Cn1cnnc1-c1cc(F)ccc1-c1cccc(N2Cc3c(cc(CNCC4(O)CCC4)cc3C(F)(F)F)C2=O)c1` [AFN-3, 2-[4′-Fluoro-2′-(4-methyl-1,2,4-triazol-3-yl)-[1,1′-biphenyl]-3-yl]-6-({[(1-hydroxycyclobutyl)methyl]amino}methyl)-4-(trifluoromethyl)-3H-isoindol-1-one], the pEC50 in assay [1] and in assay [3] was greater than 6.70 in each case. The pIC50 in assay [2] was no less than 6.70.

`Cn1cnnc1-c1cc(F)ccc1-c1cc(C2CC2)nc(N2Cc3ccc(CN[C@@H]4CCC[C@@H]4O)cc3C2=O)c1` [AFO-2, 2-{6-Cyclopropyl-4-[4-fluoro-2-(4-methyl-1,2,4-triazol-3-yl)phenyl]pyridin-2-yl}-6-({[(1R,2S)-2-hydroxycyclopentyl]amino}methyl)-3H-isoindol-1-one]: the pEC50 in assay [1] and in assay [3] was greater than 6.70 in each case. The negative-log IC50 (pIC50) in assay [2] was no less than 6.70.

On to `Cn1cnnc1-c1cnn(C)c1-c1cc(C2CC2)nc(N2Cc3ccc(CNCC4(O)CCCC4)cc3C2=O)c1` [AFQ-3, 2-{6-Cyclopropyl-4-[2-methyl-4-(4-methyl-1,2,4-triazol-3-yl)pyrazol-3-yl]pyridin-2-yl}-6-({[(1-hydroxycyclopentyl)methyl]amino}methyl)-3H-isoindol-1-one], for which the pEC50 in assay [1] and in assay [3] was greater than 6.70 throughout. The pIC50 in assay [2] was no less than 6.70.

For `CCNc1cc(-c2ccc(C#N)cc2-c2nncn2C)cc(N2Cc3c(cc(C(O)CN(C)C)cc3C(F)(F)F)C2=O)n1` (stereo not drawn) [AFR-7, 4-(2-{6-[2-(Dimethylamino)-1-hydroxyethyl]-1-oxo-4-(trifluoromethyl)-3H-isoindol-2-yl}-6-(ethylamino)pyridin-4-yl)-3-(4-methyl-1,2,4-triazol-3-yl) benzonitrile], the pEC50 in assay [1] and in assay [3] was greater than 6.70 in each case. Moreover, the pIC50 in assay [2] is no less than 6.70.

Regarding `CC(=O)c1cc2c(c(C(F)(F)F)c1)CN(c1cc(-c3ccccc3-c3nncn3C)cc(C3CC3)n1)C2=O` [AFS-1, 6-Acetyl-2-{6-cyclopropyl-4-[2-(4-methyl-1,2,4-triazol-3-yl)phenyl]pyridin-2-yl}-4-(trifluoromethyl)-3H-isoindol-1-one], the negative-log EC50 (pEC50) in assay [1] is 6.00 to 6.70; in assay [3], 4.30 to 5.00. In addition, the pIC50 in assay [2] is no less than 6.70.

As to `Cn1cnnc1-c1cnn(C)c1-c1cc(C2CC2)nc(N2Cc3c(cc(COCC4(O)CCC4)cc3C(F)(F)F)C2=O)c1` [AFV-3, 2-{6-Cyclopropyl-4-[2-methyl-4-(4-methyl-1,2,4-triazol-3-yl)pyrazol-3-yl]pyridin-2-yl}-6-{[(1-hydroxycyclobutyl)methoxy]methyl}-4-(trifluoromethyl)-3H-isoindol-1-one], the negative logarithm of the EC50 (pEC50) in assay [1] is greater than 6.70; in assay [3] it was 6.00 to 6.70. In assay [2], the pIC50 is no less than 6.70.

With `C=C(C)c1cc(-c2ccc(F)cc2-c2nncn2C)cc(N2Cc3ccc(CNCC4(O)CCC4)cc3C2=O)n1` [AFW-3, 2-{4-[4-Fluoro-2-(4-methyl-1,2,4-triazol-3-yl)phenyl]-6-(prop-1-en-2-yl)pyridin-2-yl}-6-({[(1-hydroxycyclobutyl)methyl]amino}methyl)-3H-isoindol-1-one], the pEC50 in assay [1] and in assay [3] was greater than 6.70 in each case. Also, the pIC50 in assay [2] was no less than 6.70.

`CC(C)c1cc(-c2ccc(F)cc2-c2nncn2C)cc(N2Cc3ccc(CNCC4(O)CCC4)cc3C2=O)n1` [AFX-1, 2-{4-[4-Fluoro-2-(4-methyl-1,2,4-triazol-3-yl)phenyl]-6-isopropylpyridin-2-yl}-6-({[(1-hydroxycyclobutyl)methyl]amino}methyl)-3H-isoindol-1-one]: the pEC50 in assay [1] and in assay [3] was greater than 6.70 in each case. The negative logarithm of the IC50 (pIC50) in assay [2] is no less than 6.70.

In the case of `CCNc1cc(-c2ccc(F)cc2-c2nncn2C)cc(N2Cc3c(cc(CO[C@@H]4CCC[C@@H]4O)cc3C(F)(F)F)C2=O)n1` [AFZ-1, 2-[6-(Ethylamino)-4-[4-fluoro-2-(4-methyl-1,2,4-triazol-3-yl)phenyl]pyridin-2-yl]-6-({[(1R,2S)-2-hydroxycyclopentyl]oxy}methyl)-4-(trifluoromethyl)-3H-isoindol-1-one], the pEC50 in assay [1] is greater than 6.70; in assay [3] it was 6.00 to 6.70. The pIC50 in assay [2] was no less than 6.70.

On to `Cn1cnnc1-c1cnn(C)c1-c1cc(C2CC2)nc(N2Cc3c(cc(CO[C@H]4CCC[C@H]4O)cc3C(F)(F)F)C2=O)c1` [AGA-1, 2-{6-Cyclopropyl-4-[2-methyl-4-(4-methyl-1,2,4-triazol-3-yl)pyrazol-3-yl]pyridin-2-yl}-6-({1[(1R,2S)-2-hydroxycyclopentyl]oxy}methyl)-4-(trifluoromethyl)-3H-isoindol-1-one], for which the results for the pEC50 in assay [1] and in assay [3] were greater than 6.70 and 6.00 to 6.70, respectively. For the same compound, the pIC50 in assay [2] was no less than 6.70.

On to `CCNc1cc(-c2ccc(F)cc2-c2nncn2C)cc(N2Cc3c(cc(COCC4(F)CCC4)cc3C(F)(F)F)C2=O)n1` [AGB-1, 2-[6-(Ethylamino)-4-[4-fluoro-2-(4-methyl-1,2,4-triazol-3-yl)phenyl]pyridin-2-yl]-6-{1[(1-fluorocyclobutyl)methoxy]methyl}-4-(trifluoromethyl)-3H-isoindol-1-one], for which the pEC50 in assay [1] is greater than 6.70; in assay [3], 5.00 to 6.00. Moreover, in assay [2], the negative-log IC50 (pIC50) is no less than 6.70.
